Data reported in PMC9424819, “Evaluation of commonly used cardiovascular drugs in inhibiting vonoprazan metabolism in vitro and in vivo” (Frontiers in Pharmacology, 2022).
Counter-ions that a name gives are not always drawn. Like-named read-outs stand apart in the source and are kept apart here.

Tests used:
[1] = test system: vonoprazan metabolism (MI formation) in rat liver microsomes; experiment: Inhibition of vonoprazan metabolism (MI formation) in rat liver microsome incubation; assay type: in vitro ADME; conditions: rat, rat liver microsomes, pH 7.4, probe vonoprazan (10 µM), metabolite MI measured; RLMs, 10 µM vonoprazan, MI formation
Description: (§1) Eleven common-used cardiovascular drugs were chosen to detect their possible inhibition effect on vonoprazan. […] After preincubation at 37°C for 5 min in a shaking water bath, 20 mM NADPH was added to initiate the reaction, which lasted 30 min and was stopped with […] of acetonitrile. The mixture was vortexed after adding 20 µL of diazepam and then centrifugated at 13,000 rpm for 5 min. A 2 µL aliquot of the final supernatant was injected into the UPLC–MS/MS system for analysis. The relative inhibition was calculated according to the relative MI decrease compared to the control (vonoprazan naturally metabolized in RLMs). […] The same procedures were performed. Then, an inhibition mechanism experiment was conducted for further exploration. […] Both inhibitor and substrate were added to the incubation system described above. Every concentration match had three parallels. The MI concentration was detected using the same conditions to depict the Lineweaver–Burk and Dixon plots.
(§2) The concentrations of vonoprazan and MI that were detected by UPLC-MS/MS were applied to GraphPad 7.0 (GraphPad Software Inc., United States) to calculate IC50 and depict plasma concentration-time curves and Lineweaver–Burk and Dixon plots. The pharmacokinetic parameters of the compartment analysis were calculated using DAS (version 3.2.8; The People’s Hospital of Lishui) and expressed as mean ± standard deviation. The t-test was carried out by SPSS 25.0 (SPSS Inc., United States) to compare those parameters. p value < 0.05 was considered statistically significant.

[2] = test system: vonoprazan metabolism in rat liver microsomes (RLMs); experiment: as above; assay type: in vitro ADME
Description: as §1, §2

[3] = test system: vonoprazan metabolism (MI formation) in human liver microsomes; experiment: in vitro; conditions: pH 7.4
[4] = Pharmacokinetics of vonoprazan and MI in rats with or without inhibitor pretreatment; assay type: in vivo, Sprague-Dawley rats; conditions: for AUC(0-inf) / AUC(0-t) / Cmax / Tmax / CL/F / MRT last / MRT inf / Vd/F / half-life: male, Sprague-Dawley, rat, plasma, po, 2 mg/kg; for CL/F: read-out: CLz/F (converted); for MRT last: read-out: MRT(0-t); for MRT inf: read-out: MRT(0-∞); for Vd/F: read-out: Vz/F; for half-life: read-out: t1/2z (converted)
Description: The Experimental Animal Research Center of Wenzhou Medical University provided specific pathogen-free (SPF) Sprague-Dawley rats (male, 350 ± 20 g, 3 months old). This research was conducted following the principles of the Basel Declaration. […] After one week of rearing in the new environment and fasting overnight, the drug could be gavaged.
Rats were randomly divided into three groups (n = 6). […] After 7 days, on the seventh day, all groups had gavage at a single dosage of 2 mg/kg vonoprazan.
Centrifugation at 4,000 rpm for 10 min was performed to obtain 100 µL of plasma, to which was added 200 µL of acetonitrile and 20 µL of diazepam IS. After vortex mixing and centrifugation at 13,000 rpm for 5 min, 5 µL of supernatant was obtained for analysis by UPLC-MS/MS.
as §2

[5] = amlodipine-pretreated group vs control group, rats
[6] = Amlodipine group (10 mg/kg amlodipine 7 days), single gavage 2 mg/kg vonoprazan, rat plasma
[7] = Control group (CMC-Na 7 days), single gavage 2 mg/kg vonoprazan, rat plasma

| increase of AUC [4, 5] | AUC(0-inf) [4, 6] [ng·h/mL] | AUC(0-t) [4, 6] [ng·h/mL] | Cmax [4, 6] [ng/mL] | Tmax [4, 6] [h] | CL/F [4, 6] [mL/min/kg] | MRT last [4, 6] [h] | Vd/F [4, 6] [L/kg] | half-life [4, 6] [h] | AUC(0-inf) [4, 7] [ng·h/mL] | AUC(0-t) [4, 7] [ng·h/mL] | Cmax [4, 7] [ng/mL] | Tmax [4, 7] [h] | CL/F [4, 7] [mL/min/kg] | MRT last [4, 7] [h] | MRT inf [4, 7] [h] | Vd/F [4, 7] [L/kg] | half-life [4, 7] [h] | Structure (SMILES) | other results |
| --- | --- | --- | --- | --- | --- | --- | --- | --- | --- | --- | --- | --- | --- | --- | --- | --- | --- | --- | --- |
|  |  |  |  |  |  |  |  |  |  |  |  |  |  |  |  |  |  | CCOC(=O)C1=C(COCCN)NC(C)=C(C(=O)OC)C1c1ccccc1Cl (centres unmarked) [Amlodipine, amlodipine besylate] | IC50 at 30 min [1]: 17 µM; inhibition mechanism on vonoprazan metabolism ([2]; RLMs and HLMs, Lineweaver–Burk and Dixon plots): primarily competitive with some non-competitive inhibition; IC50 at 30 min [3]: 7.2 µM |
|  |  |  |  |  |  |  |  |  |  |  |  |  |  |  |  |  |  | COc1ccc([C@@H]2Sc3ccccc3N(CCN(C)C)C(=O)[C@@H]2OC(C)=O)cc1 [Diltiazem, diltiazem hydrochloride] | inhibition effect on vonoprazan in preliminary in vitro evaluation ([2]; RLMs, roughly 100 µM drug): slightly increased inhibition effects |
| 1.6 fold | 2580 ± 450 | 2550 ± 459 | 836 ± 176 | 1.58 ± 0.67 | 13.2 | 2.92 ± 0.19 | 2.25 ± 1.11 | 1.91 ± 0.76 | 1570 ± 189 | 1540 ± 175 | 766 ± 85.1 | 1 | 21.5 | 2.13 ± 0.14 | 2.44 ± 0.26 | 5.28 ± 2.5 | 2.91 ± 1.51 | O=C(O)c1cc(-c2ccccc2F)n(S(=O)(=O)c2cccnc2)c1 [MI, 5-(2-fluorophenyl)-1-(pyridin-3-ylsulfonyl)-1H-pyrrole-3-carboxylic acid] | fall of CLz/F [4, 5]: 38%; fall of Vz/F [4, 5]: 57%; increase of MRT (0-t) [4, 5]: 1.4 fold; increase of MRT (0-∞) [4, 5]: 1.2 fold; MRT inf [4, 6]: 3.11 ± 0.31 h |
| nearly twice | 59 ± 20.9 | 58.5 ± 21.1 | 19 ± 8.3 | 1.67 ± 0.52 | 614 | 2.93 ± 0.3 | 95.5 ± 51.3 | 1.73 ± 0.65 | 29.1 ± 5.31 | 28.8 ± 5.14 | 10.2 ± 1.88 | 0.75 ± 0.27 | 1180 | 2.72 ± 0.09 | 2.87 ± 0.17 | 190 ± 41.6 | 1.89 ± 0.37 | CNCc1cc(-c2ccccc2F)n(S(=O)(=O)c2cccnc2)c1 [Vonoprazan, vonoprazan] | MRT(0-∞) [4, 6]: 3.06 ± 0.38 h; decrease of CLz/F [4, 5]: approximately by half; decrease of Vz/F [4, 5]: approximately by half; increase of Cmax [4, 5]: nearly twice; increase of Tmax [4, 5]: nearly twice |
